Reference: patent publication US20070249988A1, “Electrotransport Delivery of Nesiritide” (ALZA CORPORATION, priority 2006, published 2007)

Experiments:
[1] = In vitro electrotransport of nesiritide using hydrogel reservoirs; assay type: in vitro ADME; settings: heat separated human epidermis
Experimental: Suitable nesiritide flux rates can be achieved by selecting appropriate electrotransport conditions. […] The data shown in the figure were obtained using the transdermal delivery of nesiritide with a silver donor electrode at the anode and a silver chloride counter electrode at the cathode. […] The tests were performed on heat separated human epidermis.
In vitro electrotransport flux experiments were conducted using either synthetic polymeric Nulepore membranes or heat separated human cadaver epidermis. Custom-built horizontal diffusion cells were used for all in vitro skin flux experiments. Silver and silver chloride electrodes were used to apply current across the cell. Nesiritide hydrogels were placed between the silver anode and human heat-separated epidermis. In addition, a PVOH hydrogel containing a polymeric chloride source was placed between the silver anode and the drug hydrogel. A 1/10 dilution of Dulbecco's phosphate buffered saline (0.015 M NaCl) served as the receptor solution, which was continuously pumped through the receptor compartment. […]
(§1) The receptor samples were analyzed for nesiritide using a HPLC assay. In addition, as show in FIGS. 6B and 7B, formulations were also extracted for nesiritide and analyzed via a HPLC assay after use in a flux experiment.

[2] = Isocratic hydrophobic interaction chromatography (HIC); assay type: physicochemical
Experimental: Nesiritide was analyzed by isocratic hydrophobic interaction chromatography (HIC) using the conditions set forth in the table below to estimate the peptide's hydrophobicity.

[3] = Stability on exposure to human epidermis; assay type: in vitro ADME
Experimental: The peptide was incubated in various buffer systems, both with and without human epidermis, at concentrations to be used for donor solutions. Experiments were conducted at 32° C. for 8 hours and 24 hours. The solutions were separated into portions and analyzed by RP-HPLC using the conditions described in the table below, both directly and after dilution to give a concentration of nesiritide at ˜100 μg/mL. In some cases, donor solutions were also removed and analyzed following ET Flux experiments.

[4] = Sedimentation equilibrium analytical ultracentrifugation (XLA), self-association; assay type: physicochemical; set-up: M(1 − vbar * p) observed: unit not given beside the values; settings: for Residual Pattern / M(1 − vbar * p) observed: 10 mM ionic; for M(1 − vbar * p) observed: 32° C., 44,000 rpm
Experimental: Nesiritide's tendency towards self-association was assessed using sedimentation equilibrium analytical ultracentrifugation (XLA). An increase in the concentration of peptide in the donor formulation usually is expected to produce an increase in the rate of transport. With many peptides, raising the peptide concentration in solution will also heighten any tendency toward self-association. The conditions of the donor formulation are selected to maximize delivery and minimize aggregation. The development of peptide aggregates in solution can be determined directly by analytical ultracentrifugation. The sensitivity of detection requires at least 5% of the peptide exist as an aggregate.
Solutions of nesiritide at pH 6 and 7, (10 mM ionic imidazole) and pH 8 (10 mM ionic serinamide) were analyzed by sedimentation equilibrium ultracentrifugation. Samples were centrifuged to equilibrium at 44,000 rpm at 32° C., overnight. Absorbance as a function of radial position was determined at 258 nm.
When a highly charged peptide, such as nesiritide at pH 7, is formulated in a low ionic strength buffer, it will behave in a nonideal manner. Under such conditions, the apparent buoyant molecular weight will be lowered because of charge-charge repulsion. Theory has not been developed to estimate the magnitude of this effect when the bulk of the solution ionic strength arises from the peptide and its counter ions (as opposed to the case where the buffer ions contribute the majority of the ionic strength). The calculated value for M(1−vbar*ρ), given in the table below, was based on the behavior expected under ideal conditions.

[5] = Circular dichroic spectrometry (CD), secondary structure; assay type: physicochemical
Experimental: Circular dichroic spectrometry was used to assess the amount of secondary structure present in nesiritide under aqueous, low ionic strength conditions. In addition, changes in the value calculated for mean residual ellipticity were analyzed to determine if secondary structure, specifically α-helix, could be induced upon the addition of 2,2,2-trifluoroethanol (TFE) or high salt, or both, to nesiritide in aqueous solution at 0.8 mg/mL.
Several methods have been used to estimate the secondary structural components of proteins from the CD spectra. The techniques have been applied to peptide spectra with varying degrees of success (Sreerama, N., Woody, R. W. A Self-Consistent method for the Analysis of Protein Secondary Structure from Circular Dichroism, Analytical Biochemistry, 1993; 209 32-44; Yang, J. T. et al. Separation and Analysis of Peptides and Proteins, Methods Enzymology, 1986; 130 208-269). Computer programs were used to analyze the data from CD scans. Mean residue ellipticity ([θ]nm) was computed at each wavelength and compared to reference spectra to estimate the relative amounts of helix, sheet, turn and aperiodic secondary structure.
The secondary structure assumed by nesiritide in an aqueous environment and induced by the addition of TFE, NaCl or both, were analyzed by CD. The peptide was studied at both 32 and 20° C. The peptide was studied at two concentrations: 0.2 mg/mL (20° C.) to allow data to be obtained at wavelengths below 200 nm, and at 0.8 mg/mL (32° C.) to increase any tendency toward self association. The CD ellipticity values at 222 nm have been interpreted to best reflect the amount of α-helix. The fully helical peptide or protein would have [θ]222nm of −32,000° cm^2, while the peptide lacking secondary structure would have a value of ˜2400° cm^2.
The use of the lower concentration, with a 2 mm path, allowed data to be collected down to 197 nm. The difference spectrum (FIG. 1B) was resolved into component gaussian bands (Holladay, L. A., Savage, C. R., Cohen, S., Puett, D. Biochemistry, 1976; 15 2624-2633; Holladay, L. A., Hammonds, R. G., Jr., Puett, D. Biochemistry, 1974; 13 1653-1661) in order to estimate the amount of α-helix and β-sheet formed. Estimates of secondary structure were made by computing the ratio of the observed rotational strength (R cgs) with those for poly-L lysine in either the α-helical or β-sheet form. The table below gives the parameters of the resolved gaussians, and the estimates of secondary structure. Nesiritide in 40% TFE probably exists as a mixture of conformers.

[6] = In use stability of hydrogel formulations under electrotransport conditions (HPLC); assay type: physicochemical; settings: hydrogel formulation, over 24 hours, at 0.1 mA/cm^2 and 32° C.
Experimental: In vitro electrotransport flux experiments were conducted using either synthetic polymeric Nulepore membranes or heat separated human cadaver epidermis. Custom-built horizontal diffusion cells were used for all in vitro skin flux experiments. Silver and silver chloride electrodes were used to apply current across the cell. Nesiritide hydrogels were placed between the silver anode and human heat-separated epidermis. In addition, a PVOH hydrogel containing a polymeric chloride source was placed between the silver anode and the drug hydrogel. A 1/10 dilution of Dulbecco's phosphate buffered saline (0.015 M NaCl) served as the receptor solution, which was continuously pumped through the receptor compartment. At multiple time points, receptor samples for HPLC analysis were collected using a custom-built, automated Hanson Research Microette™ collection system.
as §1

[7] = 3 mg/mL (~1 mM), pH 6 (imidazole)
[8] = 3 mg/mL (~1 mM), pH 7 (imidazole)
[9] = 3 mg/mL (~1 mM), pH 8 (serinamide)
[10] = 10 mg/mL (~3 mM), pH 7 (imidazole)
[11] = 40% TFE difference spectrum, 0.2 mg/mL, 20° C., pH 7, 10 mM ionic cacodylate, 2 mm path

Compound: CC[C@H](C)[C@@H]1NC(=O)[C@H](CCCNC(=N)N)NC(=O)[C@H](CC(=O)O)NC(=O)[C@H](CCSC)NC(=O)[C@H](CCCCN)NC(=O)[C@H](CCCNC(=N)N)NC(=O)CNC(=O)[C@H](Cc2ccccc2)NC(=O)[C@@H](NC(=O)CNC(=O)[C@H](CO)NC(=O)CNC(=O)[C@H](CCC(N)=O)NC(=O)[C@@H](NC(=O)[C@H](CCSC)NC(=O)[C@H](CCCCN)NC(=O)[C@@H]2CCCN2C(=O)[C@@H](N)CO)C(C)C)CSSC[C@@H](C(=O)N[C@@H](CCCCN)C(=O)N[C@H](C(=O)N[C@@H](CC(C)C)C(=O)N[C@@H](CCCNC(=N)N)C(=O)N[C@@H](CCCNC(=N)N)C(=O)N[C@@H](Cc2c[nH]cn2)C(=O)O)C(C)C)NC(=O)CNC(=O)[C@H](CC(C)C)NC(=O)CNC(=O)[C@H](CO)NC(=O)[C@H](CO)NC(=O)[C@H](CO)NC(=O)[C@H](CO)NC1=O [Nesiritide, nesiritide]
- correlation between magnitude of applied current and steady state flux [1]: linear correlation
- in vitro transport efficiency ([1]; silver donor electrode at anode, silver chloride counter electrode at cathode): about 0.14 mg/mAhr
- free energy of adsorption to the HIC column, δΔ Gads ([2]; imidazole at pH 7, 10 mM ionic): 0.46 k J mole^−1
- hydrophilicity by HIC ([2]; pH 7.0 imidazole 10 mM ionic, 32° C.): high measured hydrophilicity
- resistance to destruction ([3]; following exposure to human epidermis): quite resistant to destruction
- stability with added human skin ([3]; pH 7, 24-hour, 32° C., with added human skin): no destruction
- Residual Pattern [4, 7]: nonideal
- M(1 − vbar * p) observed [4, 7]: 630
- Residual Pattern [4, 8]: flat
- M(1 − vbar * p) observed [4, 8]: 644
- Residual Pattern [4, 9]: polydisperse
- M(1 − vbar * p) observed [4, 9]: 884
- Residual Pattern [4, 10]: nonideal
- M(1 − vbar * p) observed [4, 10]: 703
- self-association ([4]; all conditions tested, by ultracentrifugation): no indication of self-association
- association state ([4]; highest concentration analyzed, 3 mM, 10 mg/mL at pH 7 in 10 mM ionic buffer): remained monomeric
- [θ]222nm mean residue ellipticity ([5]; 0.8 mg/mL (1 mm path), pH 5.5 unbuffered, in water): −1984 deg cm^2 dmol^−1
- [θ]222nm mean residue ellipticity ([5]; 32° C., 40% or 80% TFE or 1.8 M NaCl): ~3200 ° cm^2 dmol^−1
- % Structure Estimate, α-Helix n → Π* (222 nm) [5, 11]: 6.4%
- % Structure Estimate, α-Helix Π → Π* (208 nm) [5, 11]: 5.0%
- % Structure Estimate, β-Sheet n → Π* (215 nm) [5, 11]: 5.1%
- in use stability under electrotransport conditions [6]: sufficient stability
